{"source": "ChEMBL document CHEMBL3774360", "about": "“Potent multitarget FAAH-COX inhibitors: Design and structure-activity relationship studies” (Eur J Med Chem, 2016)", "key": {"Homo sapiens [1]": {"organism": "Homo sapiens", "experiment": "Binding affinity to 5-HT1 receptor (unknown origin) at 10 uM"}, "Homo sapiens [2]": {"organism": "Homo sapiens", "experiment": "Binding affinity to human sigma receptor at 10 uM by radioligand binding assay"}, "[3]": {"target": "Vasopressin V1a receptor (Homo sapiens) (UniProt P37288)", "experiment": "Binding affinity to human V1a receptor at 10 uM by radioligand binding assay"}, "Homo sapiens [4]": {"organism": "Homo sapiens", "experiment": "Binding affinity to L-type calcium channel verapamil binding site (unknown origin) at 10 uM by radioligand binding assay"}, "Homo sapiens [5]": {"organism": "Homo sapiens", "experiment": "Binding affinity to GABA-gated chloride channel (unknown origin) at 10 uM by radioligand binding assay"}, "[6]": {"target": "Sodium-dependent dopamine transporter (Homo sapiens) (UniProt Q01959)", "experiment": "Binding affinity to human dopamine transporter at 10 uM by radioligand binding assay"}, "Homo sapiens [7]": {"organism": "Homo sapiens", "experiment": "Binding affinity to GABA transporter (unknown origin) at 10 uM by radioligand binding assay"}, "[8]": {"target": "High affinity choline transporter 1 (Homo sapiens) (UniProt Q9GZV3)", "sequence (Q9GZV3 whole entry)": "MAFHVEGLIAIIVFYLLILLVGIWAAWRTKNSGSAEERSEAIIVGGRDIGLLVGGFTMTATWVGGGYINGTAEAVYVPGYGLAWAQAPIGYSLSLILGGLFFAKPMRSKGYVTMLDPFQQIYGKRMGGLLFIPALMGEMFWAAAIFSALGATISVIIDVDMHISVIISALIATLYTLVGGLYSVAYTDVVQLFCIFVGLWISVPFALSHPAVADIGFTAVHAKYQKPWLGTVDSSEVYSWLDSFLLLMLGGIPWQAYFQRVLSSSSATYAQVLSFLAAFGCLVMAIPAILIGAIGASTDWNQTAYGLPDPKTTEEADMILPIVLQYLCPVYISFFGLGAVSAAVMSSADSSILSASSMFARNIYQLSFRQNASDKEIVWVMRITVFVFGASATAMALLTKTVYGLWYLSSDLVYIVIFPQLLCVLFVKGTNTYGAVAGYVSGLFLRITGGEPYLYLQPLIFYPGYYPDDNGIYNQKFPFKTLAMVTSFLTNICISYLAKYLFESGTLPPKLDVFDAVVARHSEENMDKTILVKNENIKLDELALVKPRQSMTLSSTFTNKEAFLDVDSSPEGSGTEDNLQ", "experiment": "Binding affinity to human CHT1 transporter at 10 uM by radioligand binding assay"}, "[9]": {"target": "Prostaglandin G/H synthase 1 (Homo sapiens) (UniProt P23219)", "experiment": "Binding affinity to human COX1 at 10 uM"}, "[10]": {"target": "Polyunsaturated fatty acid 5-lipoxygenase (Homo sapiens) (UniProt P09917)", "experiment": "Binding affinity to human 5-lipoxygenase at 10 uM"}, "[11]": {"target": "cGMP-dependent 3',5'-cyclic phosphodiesterase (Homo sapiens) (UniProt O00408)", "experiment": "Binding affinity to human PDE2A1 at 10 uM"}, "[12]": {"target": "cGMP-inhibited 3',5'-cyclic phosphodiesterase 3A (Homo sapiens) (UniProt Q14432)", "experiment": "Binding affinity to human PDE3A at 10 uM"}, "[13]": {"target": "Protein kinase C alpha type (Homo sapiens) (UniProt P17252)", "experiment": "Binding affinity to human PKC-alpha at 10 uM"}, "[14]": {"target": "Catechol O-methyltransferase (Homo sapiens) (UniProt P21964)", "experiment": "Binding affinity to COMT (unknown origin) at 10 uM"}, "[15]": {"target": "4-aminobutyrate aminotransferase, mitochondrial (Homo sapiens) (UniProt P80404)", "sequence (P80404 whole entry)": "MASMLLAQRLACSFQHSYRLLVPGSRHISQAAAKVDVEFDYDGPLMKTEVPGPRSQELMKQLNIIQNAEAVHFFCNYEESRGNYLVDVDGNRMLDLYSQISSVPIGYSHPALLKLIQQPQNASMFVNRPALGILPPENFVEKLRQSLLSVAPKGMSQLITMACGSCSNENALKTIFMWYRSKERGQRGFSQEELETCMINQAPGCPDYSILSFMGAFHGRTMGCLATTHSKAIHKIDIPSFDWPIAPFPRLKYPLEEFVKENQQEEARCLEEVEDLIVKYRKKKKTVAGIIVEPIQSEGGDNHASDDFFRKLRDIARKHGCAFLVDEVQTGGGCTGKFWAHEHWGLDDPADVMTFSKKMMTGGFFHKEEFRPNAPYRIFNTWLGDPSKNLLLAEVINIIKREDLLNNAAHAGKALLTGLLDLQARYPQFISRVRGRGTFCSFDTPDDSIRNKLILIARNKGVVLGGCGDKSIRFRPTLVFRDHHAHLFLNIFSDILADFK", "experiment": "Binding affinity to GABA transaminase (unknown origin) at 10 uM"}, "[16]": {"target": "Amine oxidase [flavin-containing] B (Homo sapiens, UniProt P27338)", "sequence (P27338 whole entry)": "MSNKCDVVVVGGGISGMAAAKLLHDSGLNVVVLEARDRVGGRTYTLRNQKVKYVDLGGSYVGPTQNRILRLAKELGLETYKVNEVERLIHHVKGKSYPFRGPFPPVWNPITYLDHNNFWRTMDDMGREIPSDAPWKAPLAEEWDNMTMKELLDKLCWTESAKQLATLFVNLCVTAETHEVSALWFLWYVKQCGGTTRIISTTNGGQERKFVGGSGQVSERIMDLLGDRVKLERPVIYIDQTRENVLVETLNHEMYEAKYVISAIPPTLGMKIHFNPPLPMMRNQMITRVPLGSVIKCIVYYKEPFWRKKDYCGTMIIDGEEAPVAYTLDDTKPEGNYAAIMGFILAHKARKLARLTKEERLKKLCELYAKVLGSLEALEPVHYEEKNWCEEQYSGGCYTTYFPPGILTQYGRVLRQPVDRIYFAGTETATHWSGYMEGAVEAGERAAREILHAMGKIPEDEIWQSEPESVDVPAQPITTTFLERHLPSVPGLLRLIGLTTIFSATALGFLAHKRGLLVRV", "experiment": "Binding affinity to recombinant human MAO-B at 10 uM"}, "[17]": {"target": "Sodium/potassium-transporting ATPase (Homo sapiens) (UniProt P05023+P14415+P05026+P50993+P54709+P13637+Q13733+P54710)", "experiment": "Binding affinity to sodium/potassium-transporting ATPase (unknown origin) at 10 uM", "type": "protein-complex assay"}, "[18]": {"target": "Histone deacetylase 3 (Homo sapiens) (UniProt O15379)", "experiment": "Binding affinity to human HDAC3 at 10 uM"}, "[19]": {"target": "NAD-dependent protein deacetylase sirtuin-1 (Homo sapiens) (UniProt Q96EB6)", "sequence (Q96EB6 whole entry)": "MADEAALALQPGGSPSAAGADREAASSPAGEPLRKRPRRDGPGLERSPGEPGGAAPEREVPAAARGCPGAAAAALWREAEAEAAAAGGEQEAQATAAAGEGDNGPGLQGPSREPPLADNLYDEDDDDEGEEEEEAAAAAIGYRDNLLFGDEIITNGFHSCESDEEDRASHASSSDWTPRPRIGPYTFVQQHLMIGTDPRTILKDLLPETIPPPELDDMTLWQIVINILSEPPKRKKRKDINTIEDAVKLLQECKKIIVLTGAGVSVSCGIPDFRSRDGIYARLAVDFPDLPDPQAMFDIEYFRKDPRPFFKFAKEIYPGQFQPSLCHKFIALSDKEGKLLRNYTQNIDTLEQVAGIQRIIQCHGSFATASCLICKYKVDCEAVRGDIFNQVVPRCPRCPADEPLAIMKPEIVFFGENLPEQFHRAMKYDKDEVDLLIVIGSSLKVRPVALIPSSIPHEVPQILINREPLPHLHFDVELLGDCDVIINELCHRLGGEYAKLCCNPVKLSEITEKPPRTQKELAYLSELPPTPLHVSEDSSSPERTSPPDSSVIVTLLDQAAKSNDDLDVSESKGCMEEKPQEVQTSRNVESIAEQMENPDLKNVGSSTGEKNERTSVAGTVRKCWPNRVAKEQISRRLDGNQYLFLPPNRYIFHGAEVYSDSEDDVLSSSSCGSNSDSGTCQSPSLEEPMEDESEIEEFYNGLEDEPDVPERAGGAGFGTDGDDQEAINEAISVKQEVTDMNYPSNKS", "experiment": "Inhibition of human sirtuin 1 at 10 uM", "design": "scale not given: the % may be the effect or the level left"}, "[20]": {"target": "NAD-dependent protein deacetylase sirtuin-2 (Homo sapiens) (UniProt Q8IXJ6)", "sequence (Q8IXJ6 whole entry)": "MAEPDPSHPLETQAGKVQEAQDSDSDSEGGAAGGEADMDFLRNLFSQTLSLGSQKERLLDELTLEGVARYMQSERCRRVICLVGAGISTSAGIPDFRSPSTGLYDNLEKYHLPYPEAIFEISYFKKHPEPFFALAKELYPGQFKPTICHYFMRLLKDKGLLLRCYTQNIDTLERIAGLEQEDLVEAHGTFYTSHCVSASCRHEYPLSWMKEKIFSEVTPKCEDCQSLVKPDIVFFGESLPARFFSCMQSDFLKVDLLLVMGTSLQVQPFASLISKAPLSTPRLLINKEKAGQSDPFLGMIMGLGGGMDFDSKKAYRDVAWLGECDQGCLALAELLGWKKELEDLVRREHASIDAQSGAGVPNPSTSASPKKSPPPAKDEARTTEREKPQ", "experiment": "Inhibition of human sirtuin 2 at 10 uM", "design": "scale not given: the % may be the effect or the level left"}, "Homo sapiens [21]": {"organism": "Homo sapiens", "experiment": "Activation of human guanylyl cyclase at 10 uM"}, "Mus musculus [22]": {"test_system": "Mus musculus", "experiment": "In-vivo inhibition of COX in mouse plasma assessed as decrease in TXA2 level at 1 mg/kg, iv after 1 hr by LC-MS/MS analysis", "type": "functional, organism-based"}, "Mus musculus [23]": {"test_system": "Mus musculus", "experiment": "In-vivo inhibition of FAAH in mouse plasma assessed as increase in OEA level at 1 mg/kg, iv after 1 hr by LC-MS/MS analysis", "type": "functional, organism-based"}, "[24]": {"target": "Adenosine receptor A1 (Homo sapiens) (UniProt P30542)", "experiment": "Binding affinity to human adenosine A1 receptor at 10 uM by radioligand binding assay"}, "[25]": {"target": "Transmembrane domain-containing protein TMIGD3 (Homo sapiens) (UniProt P0DMS9)", "experiment": "Binding affinity to human adenosine A3 receptor at 10 uM by radioligand binding assay"}, "[26]": {"target": "Beta-1 adrenergic receptor (Homo sapiens) (UniProt P08588)", "experiment": "Binding affinity to beta-1 adrenergic receptor (unknown origin) at 10 uM by radioligand binding assay"}, "[27]": {"target": "Type-1 angiotensin II receptor (Homo sapiens) (UniProt P30556)", "experiment": "Binding affinity to human angiotensin receptor 1 at 10 uM by radioligand binding assay"}, "[28]": {"target": "B2 bradykinin receptor (Homo sapiens) (UniProt P30411)", "sequence (P30411 whole entry)": "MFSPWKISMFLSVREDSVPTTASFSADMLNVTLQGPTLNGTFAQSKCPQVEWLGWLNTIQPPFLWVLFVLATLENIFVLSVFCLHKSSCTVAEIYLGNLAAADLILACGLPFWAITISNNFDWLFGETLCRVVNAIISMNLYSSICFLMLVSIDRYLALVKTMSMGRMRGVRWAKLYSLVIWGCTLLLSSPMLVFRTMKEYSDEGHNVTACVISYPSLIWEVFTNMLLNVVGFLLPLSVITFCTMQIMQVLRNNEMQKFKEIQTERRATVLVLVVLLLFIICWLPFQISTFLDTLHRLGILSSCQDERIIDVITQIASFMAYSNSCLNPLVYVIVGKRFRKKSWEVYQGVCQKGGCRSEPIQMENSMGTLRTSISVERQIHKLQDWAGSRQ", "experiment": "Binding affinity to human bradykinin 2 receptor at 10 uM by radioligand binding assay"}, "[29]": {"target": "Cannabinoid receptor 1 (Homo sapiens) (UniProt P21554)", "sequence (P21554 whole entry)": "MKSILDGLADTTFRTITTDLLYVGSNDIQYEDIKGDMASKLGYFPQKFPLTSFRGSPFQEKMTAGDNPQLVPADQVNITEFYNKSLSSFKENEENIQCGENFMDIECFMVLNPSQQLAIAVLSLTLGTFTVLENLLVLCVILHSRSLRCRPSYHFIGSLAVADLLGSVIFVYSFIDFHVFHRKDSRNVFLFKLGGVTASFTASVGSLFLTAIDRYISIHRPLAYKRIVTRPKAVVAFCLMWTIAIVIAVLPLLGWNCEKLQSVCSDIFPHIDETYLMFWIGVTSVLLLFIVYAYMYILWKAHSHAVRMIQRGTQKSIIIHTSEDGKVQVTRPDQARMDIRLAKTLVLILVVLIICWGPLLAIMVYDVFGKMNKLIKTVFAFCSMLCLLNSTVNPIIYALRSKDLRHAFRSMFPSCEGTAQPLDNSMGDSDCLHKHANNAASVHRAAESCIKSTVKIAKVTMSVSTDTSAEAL", "experiment": "Binding affinity to human cannabinoid receptor 1 at 10 uM by radioligand binding assay"}, "[30]": {"target": "Cholecystokinin receptor type A (Homo sapiens) (UniProt P32238)", "sequence (P32238 whole entry)": "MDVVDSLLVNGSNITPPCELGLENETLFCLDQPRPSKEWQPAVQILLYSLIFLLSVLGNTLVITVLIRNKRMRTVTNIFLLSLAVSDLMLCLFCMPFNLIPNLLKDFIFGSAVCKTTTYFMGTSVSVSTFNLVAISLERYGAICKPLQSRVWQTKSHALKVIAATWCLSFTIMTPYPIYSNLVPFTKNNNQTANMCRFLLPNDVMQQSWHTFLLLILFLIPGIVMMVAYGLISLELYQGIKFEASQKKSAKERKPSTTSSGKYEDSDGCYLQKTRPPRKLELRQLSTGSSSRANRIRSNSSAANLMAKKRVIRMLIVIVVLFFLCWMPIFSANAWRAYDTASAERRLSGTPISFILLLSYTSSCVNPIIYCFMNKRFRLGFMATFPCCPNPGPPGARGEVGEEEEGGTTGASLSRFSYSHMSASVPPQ", "experiment": "Binding affinity to human cholecystokinin receptor type A at 10 uM by radioligand binding assay"}, "[31]": {"target": "Gastrin/cholecystokinin type B receptor (Homo sapiens) (UniProt P32239)", "experiment": "Binding affinity to human cholecystokinin receptor type B at 10 uM by radioligand binding assay"}, "[32]": {"target": "Glutamate [NMDA] receptor (Homo sapiens) (UniProt Q05586+Q12879+Q13224+O15399+O60391+Q14957+Q8TCU5)", "experiment": "Binding affinity to NMDA receptor (unknown origin) at 10 uM by radioligand binding assay"}, "[33]": {"target": "Histamine H2 receptor (Homo sapiens) (UniProt P25021)", "experiment": "Binding affinity to human histamine H2 receptor at 10 uM by radioligand binding assay"}, "[34]": {"target": "Histamine H3 receptor (Homo sapiens) (UniProt Q9Y5N1)", "sequence (Q9Y5N1 whole entry)": "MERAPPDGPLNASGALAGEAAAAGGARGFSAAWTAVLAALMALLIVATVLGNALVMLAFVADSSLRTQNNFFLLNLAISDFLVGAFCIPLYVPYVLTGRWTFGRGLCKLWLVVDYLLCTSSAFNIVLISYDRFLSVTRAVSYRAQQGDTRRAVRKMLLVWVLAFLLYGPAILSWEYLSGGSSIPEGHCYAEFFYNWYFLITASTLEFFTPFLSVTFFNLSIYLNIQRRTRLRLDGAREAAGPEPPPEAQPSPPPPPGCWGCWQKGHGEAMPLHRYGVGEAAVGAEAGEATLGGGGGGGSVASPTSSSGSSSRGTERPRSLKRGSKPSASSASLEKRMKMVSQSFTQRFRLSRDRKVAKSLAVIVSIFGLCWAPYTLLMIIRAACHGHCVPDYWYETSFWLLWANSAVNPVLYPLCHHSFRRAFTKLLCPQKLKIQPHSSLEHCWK", "experiment": "Binding affinity to human histamine H3 receptor at 10 uM by radioligand binding assay"}, "Homo sapiens [35]": {"organism": "Homo sapiens", "experiment": "Binding affinity to human muscarinic receptor at 10 uM by radioligand binding assay"}, "[36]": {"target": "Substance-P receptor (Homo sapiens) (UniProt P25103)", "experiment": "Binding affinity to human NK1 receptor at 10 uM by radioligand binding assay"}, "[37]": {"target": "Substance-K receptor (Homo sapiens) (UniProt P21452)", "experiment": "Binding affinity to human NK2 receptor at 10 uM by radioligand binding assay"}, "[38]": {"target": "Neuromedin-K receptor (Homo sapiens) (UniProt P29371)", "experiment": "Binding affinity to human neurokinin 3 receptor at 10 uM by radioligand binding assay"}, "[39]": {"target": "Neuronal acetylcholine receptor; alpha4/beta2 (Homo sapiens) (UniProt P17787+P43681)", "experiment": "Binding affinity to human N neuronal alpha4beta2 receptor at 10 uM by radioligand binding assay", "type": "protein-complex assay"}, "[40]": {"target": "Nociceptin receptor (Homo sapiens) (UniProt P41146)", "experiment": "Binding affinity to human NOP receptor at 10 uM by radioligand binding assay"}, "[41]": {"target": "Peroxisome proliferator-activated receptor gamma (Homo sapiens) (UniProt P37231)", "sequence (P37231 whole entry)": "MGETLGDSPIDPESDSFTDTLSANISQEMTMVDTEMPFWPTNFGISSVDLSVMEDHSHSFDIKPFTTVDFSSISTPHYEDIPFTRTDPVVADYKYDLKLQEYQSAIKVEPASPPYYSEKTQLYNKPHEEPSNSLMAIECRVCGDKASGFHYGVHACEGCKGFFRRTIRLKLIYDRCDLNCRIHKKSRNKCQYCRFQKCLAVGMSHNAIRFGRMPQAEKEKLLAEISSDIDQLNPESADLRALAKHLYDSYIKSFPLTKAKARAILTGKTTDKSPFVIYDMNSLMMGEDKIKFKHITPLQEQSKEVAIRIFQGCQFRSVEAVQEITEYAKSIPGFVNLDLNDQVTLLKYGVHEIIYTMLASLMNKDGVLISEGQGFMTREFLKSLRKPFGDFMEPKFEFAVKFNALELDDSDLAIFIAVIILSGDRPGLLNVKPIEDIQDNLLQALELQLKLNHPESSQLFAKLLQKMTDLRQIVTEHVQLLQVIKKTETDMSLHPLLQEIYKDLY", "experiment": "Binding affinity to human PPAR-gamma receptor at 10 uM by radioligand binding assay"}, "[42]": {"target": "Prostaglandin E2 receptor EP4 subtype (Homo sapiens) (UniProt P35408)", "experiment": "Binding affinity to human EP4 receptor at 10 uM by radioligand binding assay"}, "[43]": {"target": "Prostacyclin receptor (Homo sapiens) (UniProt P43119)", "experiment": "Binding affinity to human IP receptor at 10 uM by radioligand binding assay"}}, "note": "Calls of active or inactive are those of the source. The rule behind the calls is not given here.", "data": [{"molecule": "CCCCCCNC(=O)Oc1cccc(-c2ccc([C@H](C)C(=O)O)cc2F)c1", "values": [{"measurement": "Activity", "setting": "Homo sapiens [1]", "value": 7.8, "unit": "%"}, {"measurement": "Activity", "setting": "Homo sapiens [2]", "value": -6.9, "unit": "%"}, {"measurement": "Activity", "setting": "[3]", "value": 0.4, "unit": "%"}, {"measurement": "Activity", "setting": "Homo sapiens [4]", "value": -7.7, "unit": "%"}, {"measurement": "Activity", "setting": "Homo sapiens [5]", "value": 36, "unit": "%"}, {"measurement": "Activity", "setting": "[6]", "value": 13.5, "unit": "%"}, {"measurement": "Activity", "setting": "Homo sapiens [7]", "value": -3.3, "unit": "%"}, {"measurement": "Activity", "setting": "[8]", "value": -18.6, "unit": "%"}, {"measurement": "Activity", "setting": "[9]", "value": 99.2, "unit": "%"}, {"measurement": "Activity", "setting": "[10]", "value": 3.8, "unit": "%"}, {"measurement": "Activity", "setting": "[11]", "value": -1.4, "unit": "%"}, {"measurement": "Activity", "setting": "[12]", "value": 0.3, "unit": "%"}, {"measurement": "Activity", "setting": "[13]", "value": -26.1, "unit": "%"}, {"measurement": "Activity", "setting": "[14]", "value": -4.1, "unit": "%"}, {"measurement": "Activity", "setting": "[15]", "value": 7.6, "unit": "%"}, {"measurement": "Activity", "setting": "[16]", "value": -15.4, "unit": "%"}, {"measurement": "Activity", "setting": "[17]", "value": 0.9, "unit": "%"}, {"measurement": "Activity", "setting": "[18]", "value": -4.3, "unit": "%"}, {"measurement": "Activity", "setting": "[19]", "value": -1.5, "unit": "%"}, {"measurement": "Activity", "setting": "[20]", "value": 1.3, "unit": "%"}, {"measurement": "Activity", "setting": "Homo sapiens [21]", "value": 6.7, "unit": "%"}, {"measurement": "inhibition", "setting": "Mus musculus [22]", "value": "Active"}, {"measurement": "inhibition", "setting": "Mus musculus [23]", "value": "Active"}, {"measurement": "Activity", "setting": "[24]", "value": -8, "unit": "%"}, {"measurement": "Activity", "setting": "[25]", "value": 18.8, "unit": "%"}, {"measurement": "Activity", "setting": "[26]", "value": 5.2, "unit": "%"}, {"measurement": "Activity", "setting": "[27]", "value": -3.4, "unit": "%"}, {"measurement": "Activity", "setting": "[28]", "value": -4.3, "unit": "%"}, {"measurement": "Activity", "setting": "[29]", "value": 38.1, "unit": "%"}, {"measurement": "Activity", "setting": "[30]", "value": 10.8, "unit": "%"}, {"measurement": "Activity", "setting": "[31]", "value": 26.5, "unit": "%"}, {"measurement": "Activity", "setting": "[32]", "value": 3.3, "unit": "%"}, {"measurement": "Activity", "setting": "[33]", "value": -0.4, "unit": "%"}, {"measurement": "Activity", "setting": "[34]", "value": -9.3, "unit": "%"}, {"measurement": "Activity", "setting": "Homo sapiens [35]", "value": 5, "unit": "%"}, {"measurement": "Activity", "setting": "[36]", "value": -6.3, "unit": "%"}, {"measurement": "Activity", "setting": "[37]", "value": -1.6, "unit": "%"}, {"measurement": "Activity", "setting": "[38]", "value": 2.8, "unit": "%"}, {"measurement": "Activity", "setting": "[39]", "value": -5.6, "unit": "%"}, {"measurement": "Activity", "setting": "[40]", "value": -1.7, "unit": "%"}, {"measurement": "Activity", "setting": "[41]", "value": 80.1, "unit": "%"}, {"measurement": "Activity", "setting": "[42]", "value": 18.7, "unit": "%"}, {"measurement": "Activity", "setting": "[43]", "value": 13.7, "unit": "%"}]}]}
